Assay results reported in patent US20150010928A1, “MEANS AND METHODS FOR ASSESSING AN ENDOCRINE DISEASE OR DISORDER” (priority 2012, published 2015).
Marks after values point to notes of the source that are not given here.

System: male rats
Experiment: Plasma metabolite profiling (GC-MS, LC-MS, SPE-LC-MS) in male rats dosed once daily over 28 days (OECD 407)
Format: in vivo, rat
Parameters: key to erythro-Sphingoside (d18:1) / Tricosanoic acid (C23:0) / beta-Sitosterol / Tryptophan: ratio of treated group mean to untreated control group mean
Details: high dose; for Alanine, ratio versus control / Androstenedione, ratio versus control / Cholesterol, ratio versus control / Glycine, ratio versus control / Heptadecanoic acid (C17:0), ratio versus control / Testosterone, ratio versus control / Threonine, ratio versus control / Uric acid, ratio versus control / alpha-Tocopherol, ratio versus control: male rats, plasma
How it was run: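 Polar and lipid fractions profiled by GC-MS and LC-MS/MRM, steroids by online SPE-LC-MS; pool-normalized data compared to controls by Welch test as treatment ratios and p-values.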

Which results are given for `O=P1(NCCCl)OCCCN1CCCl` (stereo not shown) [Ifosfamide]?
Alanine, ratio versus control (day 7): 1.07; Androstenedione, ratio versus control (day 7): 3.68; Cholesterol, ratio versus control (day 7): 1.12; Glycine, ratio versus control (day 7): 1.33; Heptadecanoic acid (C17:0), ratio versus control (day 7): 0.94; Testosterone, ratio versus control (day 7): 2.35; Threonine, ratio versus control (day 7): 1.21; Uric acid, ratio versus control (day 7): 0.57; alpha-Tocopherol, ratio versus control (day 7): 0.99; Androstenedione, ratio versus control (day 14): 0.21 *; Testosterone, ratio versus control (day 14): 0.21 *; Alanine, ratio versus control (day 28): 0.76; Androstenedione, ratio versus control (day 28): 0.24 *; Cholesterol, ratio versus control (day 28): 1.13; Glycine, ratio versus control (day 28): 1.28; Heptadecanoic acid (C17:0), ratio versus control (day 28): 1.08; Testosterone, ratio versus control (day 28): 0.22 *; Threonine, ratio versus control (day 28): 0.88; Uric acid, ratio versus control (day 28): 0.65; alpha-Tocopherol, ratio versus control (day 28): 0.95

For `CC(=O)O[C@]1(C(C)=O)CC[C@H]2[C@@H]3C[C@H](C)C4=CC(=O)CC[C@]4(C)[C@H]3CC[C@@]21C` [Medroxyprogesterone acetat], which “Alanine, ratio versus control” value (day 7) is on record?
The value was 0.73 *.

What about the “Androstenedione, ratio versus control” value (day 7) of the same compound?
The value was 1.68.

What about the “Cholesterol, ratio versus control” value (day 7) of the same compound?
Its value is 0.9.

And the “Glycine, ratio versus control” value (day 7)?
The value was 1.05 *.

What about the “Heptadecanoic acid (C17:0), ratio versus control” value (day 7) of the same compound?
The value was 0.98.

And the “Testosterone, ratio versus control” value (day 7)?
The value was 2.

And the “Threonine, ratio versus control” value (day 7)?
The value was 0.82 *.

What about the “Uric acid, ratio versus control” value (day 7) of the same compound?
The value was 0.6 *.

And the “alpha-Tocopherol, ratio versus control” value (day 7)?
Its value is 0.82 *.

What about the “Alanine, ratio versus control” value (day 14) of the same compound?
The value was 0.97.

What about the “Androstenedione, ratio versus control” value (day 14) of the same compound?
The value was 0.28 *.

And the “Cholesterol, ratio versus control” value (day 14)?
Its value is 0.69 *.

What about the “Glycine, ratio versus control” value (day 14) of the same compound?
The value was 1.06.

What about the “Heptadecanoic acid (C17:0), ratio versus control” value (day 14) of the same compound?
Its value is 0.92.

What about the “Testosterone, ratio versus control” value (day 14) of the same compound?
The value was 0.22 *.

And the “Threonine, ratio versus control” value (day 14)?
Its value is 1.

And the “Uric acid, ratio versus control” value (day 14)?
The value was 1.07.

And the “alpha-Tocopherol, ratio versus control” value (day 14)?
The value was 0.82 *.

What about the “Androstenedione, ratio versus control” value (day 28) of the same compound?
The value was 0.1 *.

What about the “Testosterone, ratio versus control” value (day 28) of the same compound?
The value was 0.08 *.

Which results are given for `Cc1cccc(C)c1N(Cn1cccn1)C(=O)CCl` [Metazachlor]?
3-O-Methylsphingosine (d18:1) (m7, Table 10a): 2.88 *; 5-O-Methylsphingosine (d18:1) (m7, Table 10a): 3.04 *; Cysteine (m7, Table 10a): 1.07^; Lignoceric acid (C24:0) (m7, Table 10a): 1.6 *; Nervonic acid (C24:cis[15]1) (m7, Table 10a): 3.17 *; Oleic acid (C18:cis[9]1) (m7, Table 10a): 1.09^; Stearic acid (C18:0) (m7, Table 10a): 1.45 *; alpha-Tocopherol (m7, Table 10a): 1.71 *; erythro-Sphingoside (d18:1) (m7, Table 10a): 2.3 *; threo-Sphingosine (d18:1) (m7, Table 10a): 2.18 *; Oleic acid (C18:cis[9]1) (m7, Table 10b): 1.09; Phosphatidylcholine (C16:0, C16:0) (m7, Table 10b): 0.98; Thyroxine (T4) (m7, Table 10b): 0.98; trans-4-Hydroxyproline (m7, Table 10b): 0.93; 3-O-Methylsphingosine (d18:1) (m14, Table 10a): 4.31 *; 5-O-Methylsphingosine (d18:1) (m14, Table 10a): 4.66 *; Cysteine (m14, Table 10a): 0.86; Lignoceric acid (C24:0) (m14, Table 10a): 2.38 *; Nervonic acid (C24:cis[15]1) (m14, Table 10a): 4 *; Oleic acid (C18:cis[9]1) (m14, Table 10a): 1.82 *; Stearic acid (C18:0) (m14, Table 10a): 2.36 *; alpha-Tocopherol (m14, Table 10a): 2.2 *; erythro-Sphingoside (d18:1) (m14, Table 10a): 3.47 *; threo-Sphingosine (d18:1) (m14, Table 10a): 3.13 *; Oleic acid (C18:cis[9]1) (m14, Table 10b): 1.82^; Phosphatidylcholine (C16:0, C16:0) (m14, Table 10b): 0.83 *; Thyroxine (T4) (m14, Table 10b): 0.56 *; trans-4-Hydroxyproline (m14, Table 10b): 0.72 *; 3-O-Methylsphingosine (d18:1) (m28, Table 10a): 4.4 *; 5-O-Methylsphingosine (d18:1) (m28, Table 10a): 4.51 *; Cysteine (m28, Table 10a): 1.41 *; Lignoceric acid (C24:0) (m28, Table 10a): 2.11 *; Nervonic acid (C24:cis[15]1) (m28, Table 10a): 3.63 *; Oleic acid (C18:cis[9]1) (m28, Table 10a): 1.82 *; Stearic acid (C18:0) (m28, Table 10a): 2.59 *; alpha-Tocopherol (m28, Table 10a): 2.11 *; erythro-Sphingoside (d18:1) (m28, Table 10a): 3.68 *; threo-Sphingosine (d18:1) (m28, Table 10a): 3.33 *; Oleic acid (C18:cis[9]1) (m28, Table 10b): 1.82^; Phosphatidylcholine (C16:0, C16:0) (m28, Table 10b): 0.79 *; Thyroxine (T4) (m28, Table 10b): 0.74^; trans-4-Hydroxyproline (m28, Table 10b): 0.84 *
